Assay results as given in patent publication US8771973B2, “Methods for treating bleeding disorders using sulfated polysaccharides” (Baxter Healthcare S.A., priority 2004, dated 2014).

Columns and labels:
Hem-A plasma [1] = assay: dPT assay, anti-coagulant activity of NASPs in Hem-A plasma; format: biochemical, human; conditions: for clotting time, dPT: Hem-A plasma without NASP 41.5 seconds; for concentration for 50% prolongation of clotting time, fold higher than heparin: dPT, Hem-A plasma
Protocol: (§1) The dPT assay used was a modified standard clinical PT assay (Nordfang et al. (1991) Thromb Haemost 66:464-467; Welsch et al. (1991) Thrombosis Research 64: 213-222). SIMPLASTIN EXCEL thromboplastin reagent (Organon Teknika) was reconstituted with the manufacturer's diluent and further diluted 1:100 in 0.9% saline. The thromboplastin reagent, 25 mM CaCl2, and plasma samples were pre-warmed to 37° C. before initiating the assay. 100 μl of thawed plasma was aliquoted into microcentrifuge tubes. […] 100 μl of the diluted thromboplastin reagent and 100 μl of 25 mM CaCl2 were added to fibrin cups (Fisher) prewarmed to 37° C. 100 μl of plasma (normal or hemophilic) containing the test agent or saline control was added to the fibrin cups containing the thromboplastin reagent and CaCl2 to initiate clotting. The time for plasma clotting was measured with a BBL FIBROSYSTEM fibrometer.
Test compounds were diluted to 100 μM, 10 μM, 2 μM and 200 nM. For each test compound, 12.5 μl of a diluted solution containing the test compound was added to 237.5 μl of Hem-A plasma and incubated at room temperature. 100 μl of plasma containing the test compound was removed for dPT assays of plasma clotting time as described in Example 2.

[2] = system: Hem-A plasma containing 1.25% FACT plasma; assay: aPTT assay, NASPs in 1.25% FACT diluted in Hem-A plasma; format: biochemical, human; conditions: for concentration producing approximately 50% prolongation in clotting time, fold higher than for heparin: APTT, Hem-A plasma
Protocol: Activated Partial Thromboplastin Time (aPTT) Assay The aPTT assay was performed as described previously with modifications (PDR Staff Physicians' Desk Reference. 2004, Anderson Lo, Barrowcliffe, T. W., Holmer, E., Johnson, E. A., Sims, G. E. C. Thromb. Res. 1976; 9:575-580). 25 mM CaCl2 and fibrin cups (Fisher) were pre-warmed to 37° C. 0.1 ml of thawed human plasma (normal or hemophilic) was added to warmed test tubes. 5 μl of saline (e.g. Sigma) or 5 μl of test agent (e.g., NASP) dissolved in saline was incubated with 95 μl of plasma for 30 minutes at room temperature. APTT reagent (e.g. Organon Teknika) was reconstituted in 3 ml distilled water and 0.1 ml of the reconstituted solution containing the APTT reagent was added to each test tube. 0.2 ml of plasma containing the test agent or saline control and aPTT reagent were transferred from test tubes to pre-warmed fibrin cups and incubated for 2-3 minutes. 0.1 ml of pre-warmed 25 mM CaCl2 was added to initiate clotting, and the time for plasma clotting was measured with a BBL FIBROSYSTEM fibrometer.
The effect of NASPs on the clotting time of plasma was determined as follows: 5 μl of a NASP was added to 95 μl of 1.25% FACT diluted in human Hem-A plasma and incubated at room temperature for 30 minutes. aPTT assays were performed to determine plasma clotting time as described in Example 1.

TFPI [3] = target: T1, TFPI (Homo sapiens, UniProt P10646); assay: dPT assay, inhibition of TFPI activity in Hem-A plasma, TFPI preincubated with NASP; format: biochemical; conditions: Hem-A + TFPI, preincubation, plasma alone 44, + TFPI 151 seconds
T1 construct: purchased American Diagnostica (Stamford, Conn.)
T1 sequence (P10646 29-304): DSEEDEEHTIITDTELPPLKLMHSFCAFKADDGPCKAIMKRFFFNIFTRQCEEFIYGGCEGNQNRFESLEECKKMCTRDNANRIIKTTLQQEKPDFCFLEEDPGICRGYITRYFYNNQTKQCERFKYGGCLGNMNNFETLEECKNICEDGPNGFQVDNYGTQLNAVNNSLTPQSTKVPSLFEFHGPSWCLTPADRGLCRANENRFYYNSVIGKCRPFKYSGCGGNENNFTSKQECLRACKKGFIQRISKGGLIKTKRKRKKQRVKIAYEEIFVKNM
Protocol: as §1
(§2) Inhibition of TFPI activity by NASPs was assessed in dPT clotting assays with normal or hemophilic plasma and added recombinant TFPI. Diluted recombinant TFPI was preincubated with NASPs for 5 minutes at room temperature before plasma was added. After addition of plasma, the mixture was incubated for an additional 25 minutes followed by dPT initiation.

TFPI [4] = target: T1, TFPI; assay: dPT assay, inhibition of TFPI activity in Hem-B plasma, TFPI preincubated with NASP; format: biochemical; conditions: Hem-B + TFPI, plasma alone 46, + TFPI 101 seconds
Protocol: as §1, §2
The acceleration of plasma clotting by the NASPs in the presence of TFPI was also tested in Hem-B and normal plasma.

Hem-A plasma [5] = assay: dPT assay, Hem-A plasma in absence of exogenous TFPI; format: biochemical, human; conditions: Hem-A, no exogenous TFPI, no NASP 69 seconds
Protocol: as §1
The ability of NASPs to accelerate clotting of factor-deficient plasma in the absence of TFPI supplementation was also tested in dPT assays. A procoagulant response, if observed, may be related to neutralization of endogenous TFPI activity, which is present in human plasma at approximately 100 ng/ml (Nordfang et al., supra), largely associated with lipoprotein or platelets (Broze et al. (1992) Semin. Hematol. 29:159-169; Broze et al. (2003) J. Thromb. Haemost. 1:1671-1675).
The ability of NASPs to accelerate clotting of Hem-A plasma in the absence of exogenous TFPI was tested. Fucoidan or PPS were titrated into Hem A plasma and dPT assays were performed. Additionally, the dose-response to factor VIIa was analyzed as a positive control for amplifying extrinsic pathway activation.

[6] = system: Factor VII-deficient plasma; assay: dPT assay, Factor VII-deficient plasma in absence of exogenous TFPI; format: biochemical, human; conditions: FVII-deficient plasma, no NASP + 0.1 nM FVIIa 173 seconds
Protocol: as §1
Regulation of clotting in Factor VII-deficient plasma was also evaluated in dPT assays. […] Addition of FVIIa to approximately 0.1 nM restored the clotting time to about 150 seconds (data not shown). Such a variation in clotting time shown in the dPT assay mimics some forms of human factor VII-deficiency. Titration of fucoidan and PPS into FVII-deficient plasma accelerated clotting times.

Substance | clotting time, dPT (Hem-A plasma [1]; 10 nM) | clotting time, dPT (Hem-A plasma [1]; 100 nM) | clotting time, dPT (Hem-A plasma [1]; 500 nM) | concentration for 50% prolongation of clotting time, fold higher than heparin (Hem-A plasma [1]) | clotting time, aPTT ([2]; 0.8 nM) | clotting time, aPTT ([2]; 4 nM) | clotting time, aPTT ([2]; 20 nM) | clotting time, aPTT ([2]; 100 nM) | concentration producing approximately 50% prolongation in clotting time, fold higher than for heparin [2] | clotting time, dPT (TFPI [3]; 0.16 nM) | clotting time, dPT (TFPI [3]; 0.8 nM) | clotting time, dPT (TFPI [3]; 4 nM) | clotting time, dPT (TFPI [3]; 20 nM) | clotting time, dPT (TFPI [3]; 100 nM) | clotting time, dPT (TFPI [3]; 500 nM) | clotting time, dPT (TFPI [4]; 0.16 nM) | clotting time, dPT (TFPI [4]; 0.8 nM) | clotting time, dPT (TFPI [4]; 4 nM) | clotting time, dPT (TFPI [4]; 20 nM) | clotting time, dPT (TFPI [4]; 100 nM) | other results
Fucoidan | 39 s | 38 s | 60 s | approximately 10 fold | 70 s | 71 s | 75 s | 119 s | 10 fold | 130 s | 108 s | 72 s | 54 s | 46 s | 75 s | 108 s | 95 s | 80 s | 54 s | 50 s | clotting time, aPTT ([2]; 0.16 nM): 71 s; clotting time, dPT (TFPI [4]; 500 nM): 60 s; clotting time, dPT (Hem-A plasma [5]; 0.16 nM): 70 s; clotting time, dPT (Hem-A plasma [5]; 0.8 nM): 68 s; clotting time, dPT (Hem-A plasma [5]; 4 nM): 63 s; clotting time, dPT (Hem-A plasma [5]; 20 nM): ~55 s; clotting time, dPT (Hem-A plasma [5]; 100 nM): 56 s; clotting time, dPT ([6]; 0.8 nM): 168 s; clotting time, dPT ([6]; 4 nM): 147 s; clotting time, dPT ([6]; 20 nM): 120 s; clotting time, dPT ([6]; 100 nM): 74 s; clotting time, dPT ([6]; 500 nM): 111 s
Pentosan Polysulphate Sodium [PPS] | 39 s | 37 s | 40 s | ~100 fold | 70 s | 71 s | 72 s | 80 s | 100 fold | 158 s | 111 s | 91 s | 55 s | 57 s | 74 s | 106 s | 90 s | 82 s | 65 s | 52 s | clotting time, dPT (Hem-A plasma [1]; 5000 nM): 70 s; clotting time, aPTT ([2]; 500 nM): 113 s; clotting time, dPT (TFPI [4]; 500 nM): 56 s; clotting time, dPT (Hem-A plasma [5]; 0.16 nM): 69 s; clotting time, dPT (Hem-A plasma [5]; 0.8 nM): 68 s; clotting time, dPT (Hem-A plasma [5]; 4 nM): 66 s; clotting time, dPT (Hem-A plasma [5]; 20 nM): 62 s; clotting time, dPT (Hem-A plasma [5]; 100 nM): 60 s; clotting time, dPT ([6]; 0.8 nM): 198 s; clotting time, dPT ([6]; 4 nM): 181 s; clotting time, dPT ([6]; 20 nM): 159 s; clotting time, dPT ([6]; 100 nM): 142 s; clotting time, dPT ([6]; 500 nM): 113 s
